Data published in patent US6737383B1, “Herbicidal oxadiazolidines” (priority 1999, dated 2004).

Key:
[1] = system: bermuda-grass; assay: Test D bermudagrass; format: in vivo, Cynodon dactylon; conditions: Preemergence, 0 to 100 scale
Outline: (§1)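 Seeds were sown in greenhouse pots, one species per pot or compartment. Compounds were in a non-phytotoxic solvent mixture with surfactant; preemergence applications went on the sandy loam surface within one day of planting. Injury was rated visually after 14 to 21 days, 0 (none) to 100 (complete control).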

[2] = system: purple nutsedge; assay: Test D purple nutsedge; format: in vivo, Cyperus rotundus; conditions: Preemergence, 0 to 100 scale
Outline: as §1

[3] = system: tall mallow; assay: Test D tall mallow; format: in vivo, Malva sylvestris; conditions: Preemergence, 0 to 100 scale
Outline: as §1

[4] = system: surinam grass; assay: Test D surinam grass; format: in vivo, Brachiaria decumbens; conditions: Preemergence, 0 to 100 scale
Outline: as §1

[5] = system: large crabgrass; assay: Test D large crabgrass; format: in vivo, Digitaria sanguinalis; conditions: Preemergence, 0 to 100 scale
Outline: as §1

[6] = system: common groundsel; assay: Test D common groundsel; format: in vivo, Senecio vulgaris; conditions: Preemergence, 0 to 100 scale
Outline: as §1

[7] = system: goosegrass; assay: Test D goosegrass; format: in vivo, Eleusine indica; conditions: Preemergence, 0 to 100 scale
Outline: as §1

[8] = system: Alexandergrass; assay: Test D Alexandergrass; format: in vivo, Brachiaria plantaginea; conditions: Preemergence, 0 to 100 scale
Outline: as §1

[9] = system: sandbur; assay: Test D sandbur; format: in vivo, Cenchrus echinatus; conditions: Preemergence, 0 to 100 scale
Outline: as §1

[10] = system: Johnson grass; assay: Test D Johnson grass; format: in vivo, Sorghum halepense; conditions: Preemergence, 0 to 100 scale
Outline: as §1

[11] = system: guineagrass; assay: Test D guineagrass; format: in vivo, Panicum maximum; conditions: Preemergence, 0 to 100 scale
Outline: as §1

[12] = system: dallisgrass; assay: Test D dallisgrass; format: in vivo, Paspalum dilatatum; conditions: Preemergence, 0 to 100 scale
Outline: as §1

[13] = system: common pursiane; assay: Test D common purslane; format: in vivo, Portulaca oleracea
Outline: as §1

[14] = system: pitted morningglory; assay: Test D pitted morningglory; format: in vivo, Ipomoea lacunosa; conditions: Preemergence, 0 to 100 scale
Outline: as §1

[15] = system: Spanishneedles; assay: Test D Spanishneedles; format: in vivo, Bidens bipinnata; conditions: Preemergence, 0 to 100 scale
Outline: as §1

[16] = Rate 16 g/ha, 0 no injury, 100 complete control
[17] = Rate 32 g/ha, 0 no injury, 100 complete control
[18] = Rate 64 g/ha, 0 no injury, 100 complete control
[19] = Rate 125 g/ha, 0 no injury, 100 complete control

## C=CCn1c(=O)on(C(=O)N(c2ccccc2)C(C)C)c1=O [Compound 93]
[1]; [16]
  Plant response rating, Bermudagrass: 80
[1]; [17]
  Plant response rating, Bermudagrass: 80
[1]; [18]
  Plant response rating, Bermudagrass: 90
[1]; [19]
  Plant response rating, Bermudagrass: 100
[1]; Rate 250 g/ha
  Plant response rating, Bermudagrass: 100
[1]; Rate 500 g/ha
  Plant response rating, Bermudagrass: 100
[2]; [16]
  Plant response rating, Purple nutsedge: 0
[2]; [17]
  Plant response rating, Purple nutsedge: 0
[2]; [18]
  Purple nutsedge plant response rating: 20
[2]; [19]
  Purple nutsedge plant response rating: 0
[2]; Rate 250 g/ha
  Plant response rating, Purple nutsedge: 30
[2]; Rate 500 g/ha
  Plant response rating, Purple nutsedge: 100
[3]; [16]
  Plant response rating, Tall Mallow: 0
[3]; [17]
  Plant response rating, Tall Mallow: 0
[3]; [18]
  Tall Mallow plant response rating: 0
[3]; [19]
  Tall Mallow plant response rating: 30
[3]; Rate 250 g/ha
  Plant response rating, Tall Mallow: 90
[3]; Rate 500 g/ha
  Plant response rating, Tall Mallow: 98
[4]; [16]
  Plant response rating, Surinam grass: 0
[4]; [17]
  Plant response rating, Surinam grass: 0
[4]; [18]
  Surinam grass plant response rating: 85
[4]; [19]
  Surinam grass plant response rating: 90
[4]; Rate 250 g/ha
  Plant response rating, Surinam grass: 98
[4]; Rate 500 g/ha
  Plant response rating, Surinam grass: 100
[5]; [16]
  Plant response rating, Large crabgrass: 90
[5]; [17]
  Plant response rating, Large crabgrass: 98
[5]; [18]
  Plant response rating, Large crabgrass: 98
[5]; [19]
  Plant response rating, Large crabgrass: 100
[5]; Rate 250 g/ha
  Plant response rating, Large crabgrass: 100
[5]; Rate 500 g/ha
  Plant response rating, Large crabgrass: 100
[6]; [16]
  Plant response rating, Com. groundsel: 0
[6]; [17]
  Plant response rating, Com. groundsel: 0
[6]; [18]
  Plant response rating, Com. groundsel: 0
[6]; [19]
  Plant response rating, Com. groundsel: 35
[6]; Rate 250 g/ha
  Plant response rating, Com. groundsel: 0
[6]; Rate 500 g/ha
  Plant response rating, Com. groundsel: 100
[7]; [16]
  Plant response rating, Goosegrass: 65
[7]; [17]
  Plant response rating, Goosegrass: 98
[7]; [18]
  Plant response rating, Goosegrass: 98
[7]; [19]
  Plant response rating, Goosegrass: 100
[7]; Rate 250 g/ha
  Plant response rating, Goosegrass: 100
[7]; Rate 500 g/ha
  Plant response rating, Goosegrass: 100
[8]; [16]
  Plant response rating, Alexandergrass: 0
[8]; [17]
  Plant response rating, Alexandergrass: 10
[8]; [18]
  Plant response rating, Alexandergrass: 30
[8]; [19]
  Plant response rating, Alexandergrass: 85
[8]; Rate 250 g/ha
  Plant response rating, Alexandergrass: 100
[8]; Rate 500 g/ha
  Plant response rating, Alexandergrass: 100
[9]; [16]
  Plant response rating, Sandbur: 0
[9]; [17]
  Plant response rating, Sandbur: 0
[9]; [18]
  Sandbur plant response rating: 65
[9]; [19]
  Sandbur plant response rating: 65
[9]; Rate 250 g/ha
  Plant response rating, Sandbur: 100
[9]; Rate 500 g/ha
  Plant response rating, Sandbur: 100
[10]; [16]
  Plant response rating, Johnsongrass: 0
[10]; [17]
  Plant response rating, Johnsongrass: 0
[10]; [18]
  Plant response rating, Johnsongrass: 40
[10]; [19]
  Plant response rating, Johnsongrass: 75
[10]; Rate 250 g/ha
  Plant response rating, Johnsongrass: 95
[10]; Rate 500 g/ha
  Plant response rating, Johnsongrass: 85
[11]; [16]
  Plant response rating, Guineagrass: 65
[11]; [17]
  Plant response rating, Guineagrass: 75
[11]; [18]
  Plant response rating, Guineagrass: 100
[11]; [19]
  Plant response rating, Guineagrass: 100
[11]; Rate 250 g/ha
  Plant response rating, Guineagrass: 100
[11]; Rate 500 g/ha
  Plant response rating, Guineagrass: 100
[12]; [16]
  Plant response rating, Dallisgrass: 60
[12]; [17]
  Plant response rating, Dallisgrass: 98
[12]; [18]
  Plant response rating, Dallisgrass: 98
[12]; [19]
  Plant response rating, Dallisgrass: 98
[12]; Rate 250 g/ha
  Plant response rating, Dallisgrass: 100
[12]; Rate 500 g/ha
  Plant response rating, Dallisgrass: 100
[13]; Rate 16 g/ha; Preemergence; 0 to 100 scale, 0 no injury, 100 complete control
  Plant response rating, C. purslane: 0
[13]; Rate 32 g/ha; Preemergence; 0 to 100 scale, 0 no injury, 100 complete control
  Plant response rating, C. purslane: 0
[13]; Rate 64 g/ha, Preemergence; 0 to 100 scale, 0 no injury, 100 complete control
  Plant response rating, C. purslane: 0
[13]; Rate 125 g/ha, Preemergence; 0 to 100 scale, 0 no injury, 100 complete control
  Plant response rating, C. purslane: 0
[13]; Rate 250 g/ha; Preemergence; 0 to 100 scale
  Plant response rating, C. purslane: 0
[13]; Rate 500 g/ha, Preemergence; 0 to 100 scale
  Plant response rating, C. purslane: 80
[13]; Rate 500 g/ha; Preemergence; 0 to 100 scale
  Plant response rating, C. purslane: 0
[14]; [16]
  Plant response rating, P. morninglory: 0
[14]; [17]
  Plant response rating, P. morninglory: 0
[14]; [18]
  Plant response rating, P. morninglory: 0
[14]; [19]
  Plant response rating, P. morninglory: 0
[14]; Rate 250 g/ha
  Plant response rating, P. morninglory: 0
[14]; Rate 500 g/ha
  Plant response rating, P. morninglory: 20
[15]; [16]
  Plant response rating, Spanishneedles: 0
[15]; [17]
  Plant response rating, Spanishneedles: 0
[15]; [18]
  Spanishneedles plant response rating: 0
[15]; [19]
  Spanishneedles plant response rating: 10
[15]; Rate 500 g/ha
  Plant response rating, Spanishneedles: 45
